Converted amounts (≈) assume the structure as drawn. “And” between values parts separate entries of the source, which are not always exact repeats. Identical values can stand only once. Counter-ions that a name gives are not always drawn. Like-named read-outs stand apart in the source and are kept apart here.
How the values were obtained:
[1] = octanol/water partition coefficient, unionized form; cited from earlier work
[2] = physchem; details: 22.5 °C, pH 6, aqueous buffer, thermodynamic from solid
[3] = pure water at approximately 25° C.; cited from earlier work
[4] = Phase-solubility of cholesterol in aqueous cyclodextrin solutions; format: physicochemical; details: aqueous solutions of various β-cyclodextrin derivatives (RMβCD, HPβCD, SBEβCD, TMAβCD, CMβCD), ambient temperature (FIG. 7)
Description: This left a very thin layer of cholesterol on the inner surface of the vials.

[5] = Job's plots (continuous variation, NMR and UV); format: physicochemical; details: sodium salts, buffered solutions (FIG. 3)
Protocol: The total molar concentration (i.e., the combined concentration of drug and HPβCD in moles per liter) was kept constant, but the mole fraction of HPβCD (i.e., [HPβCD]/([drug]+[HPβCD])) were varied from 0.1 to 0.9. The buffer salts were dissolved in 30% (v/v) D2O in water and appropriate amounts of drug and HPβCD were dissolved in the buffer solution. […] […]. The NMR spectra were recorded at 297 K on a Bruker AZ250P 250 MHZ spectrometer (USA). The UV-detector used was a Perkin-Elmer Lambda 3A Spectrophotometer (USA).

[6] = Viscosity (Brookfield digital viscometer); format: physicochemical; details: 20% (w/v) HPβCD solution
[7] = Experiment A: solubility of alprazolam and diflunisal sodium salt in 10% HPβCD; details: for solubility at 7 days: 22.5 °C, pH 8.36, aqueous with cosolvent or surfactant or cyclodextrin, thermodynamic from solid
[8] = Phase-solubility in aqueous HPβCD solutions
[9] = physchem; details: 22.5 °C, pH 8.36, aqueous with cosolvent or surfactant or cyclodextrin, thermodynamic from solid

CC(C)Cc1ccc(C(C)C(=O)[O-])cc1.[Na+] (stereo not shown) [ibuprofen sodium salt]
slope of phase-solubility diagram (pH 6.12): 1.12
slope of phase-solubility diagram (pH 6.28): 1.17
slope of phase-solubility diagram (pH 6.72): 1.12

Oc1cc(Cl)ccc1Oc1ccc(Cl)cc1Cl [triclosan]
log P [1]: 4.8

CC/C(=C(/CC)c1ccc(O)cc1)c1ccc(O)cc1 [Diethylstilbestrol]
solubility at 7 days [2]: 10 µM (≈ 2.68 µg/mL)
Complexation efficiency (slope/(1 − slope)) (pH 6): 2
Slope of the phase-solubility diagram (pH 6): 0.71
shape of phase-solubility diagram (pH 6): non-linear
type of phase-solubility diagram (pH 6): AL-type

β-cyclodextrin sulfobutyl ether sodium salt
Solubility in water [3]: >500 mg/mL

CC(C)CCC[C@@H](C)[C@H]1CC[C@H]2[C@@H]3CC=C4C[C@@H](O)CC[C@]4(C)[C@H]3CC[C@]12C [cholesterol]
type of phase-solubility diagram [4]: AP-type
log P [1]: 8.5

CC(C)Cc1ccc(C(C)C(=O)O)cc1 (stereo not shown) [ibuprofen]
mole fraction of HPβCD in the complex (Job's plots) [5]: 0.5
effect of increase in ionic strength on solubility (pH 6): does not effect
slope of phase-solubility diagram (pH 6): 1.2
type of phase-solubility diagram (pH 6): AL-type

carotene
log P [1]: > 10

CC(C)CCC[C@@H](C)[C@H]1CC[C@H]2C3=CC=C4C[C@@H](O)CC[C@]4(C)[C@H]3CC[C@]12C [dehydrocholesterol]
log P [1]: 7.8

2-Hydroxypropyl-β-cyclodextrin
viscosity [6]: 2.10 cPoise

O=C(O)c1cc(-c2ccc(F)cc2F)ccc1O [sodium salt of diflunisal, diflunisal sodium salt]
slope of phase-solubility diagram (pH 8.36): 1.1
type of phase-solubility diagram (pH 8.36): AL-type

Cc1nnc2n1-c1ccc(Cl)cc1C(c1ccccc1)=NC2 [Alprazolam]
increase in solubility ([7]; 10% HPβCD saturated with diflunisal vs 10% HPβCD alone): 108%
solubility at 7 days ([7]; 10% (w/v) HPβCD solution previously saturated with diflunisal): 1230 µg/mL and 3980 µM
solubility at 7 days ([7]; 10% aqueous HPβCD solution, unbuffered, room temperature): 590 µg/mL and 1910 µM
solubility at 7 days ([8]; 22.5 °C, pH 6, aqueous buffer, thermodynamic from solid): 200 µM (≈ 61.8 µg/mL)
type of phase-solubility diagram ([8]; HPβCD containing pH 6.0 aqueous phosphate buffer solution, no second drug (FIG. 4)): AL-type
type of phase-solubility diagram ([8]; aqueous HPβCD solutions saturated with the sodium salt of diflunisal (FIGS. 5, 6)): AL-type
type of phase-solubility diagram ([8]; in the presence of ibuprofen (FIG. 4A)): AL-type

O=C(O)Cc1ccccc1Oc1ccc(Cl)cc1Cl [fenclofenac]
log P [1]: 4.8

O=C(O)c1cc(-c2ccc(F)cc2F)ccc1O [diflunisal]
mole fraction of HPβCD in the complex (Job's plots) [5]: 0.5
solubility at 7 days [9]: ~47 mg/mL (≈ 188 mM)
slope of phase-solubility diagram (pH 6): 1.1
type of phase-solubility diagram (pH 6): AL-type
log P [1]: 4.4
